Here are results for one substance from patent US20220280526A1, “AGENT FOR THE TREATMENT OF PSORIASIS” (EBERHARD KARLS UNIVERSITAET TUEBINGEN MEDIZINISCHE FAKULTAET, priority 2019, published 2022).

Entries after “also recorded” stand apart in the source; their conditions may differ.

One data set relates to STAT3 lysine methylation. The experiment in a line: Detection of methylated STAT3 by immunoprecipitation in HEK293T cells. The conditions noted are these: STAT3- and EZH2-overexpressing HEK293T cells, 1 h treatment. In kind it is cell-based. The method, then: HEK293T cells were transfected using HBS buffer and CaCl2. HaCaT cells were transfected with Lipofectamine 3000, according to the manufacturer's instructions (Thermo Fisher). 5 μg expression constructs were incubated with 3*10^5 cells for 4 h. 36-48 h post transfection, cells were harvested and analysed.
Western blot analysis was performed as described before. The following antibodies were used and purchased from Cell Signaling: anti-IκBζ (9244), anti-phospho-STAT3 at Tyr705 (9145), anti-phospho-STAT3 at Ser727 (9134), anti-STAT3 (12640), anti-p65 (8242), anti-EZH2 (5246), anti-pRB (phospho-RB at Ser807/811; 8516), anti-FoxM1 (5436), anti-H3 (4499), anti-CDK4 (12790), anti-CDK6 (13331), anti-CDK9 (2316), anti-cyclin D1 (2978), anti-cyclin D2 (3741), anti-cyclin D3 (2936), anti-cJUN (9165), anti-H3K27me3 (9733), anti-GAPDH (2118), anti-H3 (9715) and anti-β-actin (3700). Anti-β-Gal (sc377257) and anti-GFP (sc9996) were obtained from Santa Cruz Biotechnology. Anti-pEZH2 at T345 (61242) anti-pEZH2 at T487 (12820) were purchased from Active Motif and anti-pan-methyl-lysine antibody was purchased from Enzo (ADI-KAP-TF121-E). For detection of mouse IκBζ, a self-made antibody raised against peptides […] (SEQ ID NO:3) and […] (SEQ ID NO:4) was applied. […]

For data set [1], the system named is IMQ-induced psoriasis-like skin inflammation. The experiment in a line: Imiquimod (IMQ)-mediated psoriasis mouse model, topical treatment of ears. In kind it is in vivo, C57BL/6 mice. The method, then: Experiments were conducted in accordance with the German law guidelines of animal care. […] At day 7, mice were sacrificed and analysed. For IL-36α-mediated psoriasis induction, ears of male C57BL/6 mice (8-12 weeks old) were treated by intradermal injections using 1 μg murine IL-36α (aa 8-160, R&D) or PBS control for 5 consecutive days. […] Inhibitors were topically applicated 6 h before intradermal injections of IL-36α or PBS were applied. Mice were sacrificed and analysed at day 6.
Sample preparation was performed as described. The following anti-mouse antibodies from BioLegend were used: anti-CD45 FITC (103107), anti-CD11 b PacificBlue (101223), anti-Ly6G PE (127607), anti-F4/80 APC (123115), anti-CD11c Pacific Blue (117322), anti-MHC-II APC (107613), anti-CD172α PE (144011) and anti-Silec-H PE (129605). Anti-PDCA-1 APC (17-2092-80) and anti-αβTCR PE (HM3628) were purchased from Invitrogen, and anti-γδ-TCR APC (17-5711-82) from Sigma. Data was acquired on a LSRII flow cytometer (Becton Dickson).
Ear sections from mice were fixed in 10% formalin (Carl Roth) and subsequently embedded in paraffin. 5-μm sections were prepared and incubated with the following antibodies from Cell Signaling: pSTAT3 (9145), pRB (8516) and H3K27me3 (9733). For staining of human skin samples, EZH2 antibody (Cell Signaling, 5246) was used. Antigen retrieval was performed in 1 mM EDTA pH 8.0 for pSTAT3, and 10 mM citrate buffer pH 6.0+0.5% Triton X-100 for EZH2, H3K27me3 and pRB. After incubation with peroxidase-coupled secondary antibodies, sections were stained with DAB substrate.

Data set [2] relates to IL-36-mediated psoriasis-like dermatitis. The experiment in a line: IL-36α-triggered psoriasis-like dermatitis mouse model, topical treatment of ears. In kind it is in vivo, C57BL/6 mice. The method, then: Experiments were conducted in accordance with the German law guidelines of animal care. […] At day 7, mice were sacrificed and analysed. For IL-36α-mediated psoriasis induction, ears of male C57BL/6 mice (8-12 weeks old) were treated by intradermal injections using 1 μg murine IL-36α (aa 8-160, R&D) or PBS control for 5 consecutive days. […] Inhibitors were topically applicated 6 h before intradermal injections of IL-36α or PBS were applied. Mice were sacrificed and analysed at day 6. Ear sections from mice were fixed in 10% formalin (Carl Roth) and subsequently embedded in paraffin. 5-μm sections were prepared and incubated with the following antibodies from Cell Signaling: pSTAT3 (9145), pRB (8516) and H3K27me3 (9733). For staining of human skin samples, EZH2 antibody (Cell Signaling, 5246) was used. Antigen retrieval was performed in 1 mM EDTA pH 8.0 for pSTAT3, and 10 mM citrate buffer pH 6.0+0.5% Triton X-100 for EZH2, H3K27me3 and pRB. After incubation with peroxidase-coupled secondary antibodies, sections were stained with DAB substrate.

The next data set concerns IκBζ (NFKBIZ) expression. The experiment in a line: IκBζ expression in cytokine-stimulated primary human keratinocytes (immunoblot, qPCR). The conditions noted are these: 1 h cytokine, abemaciclib 16 μM, palbociclib 50 μM. In kind it is cell-based.
Where [3] appears, read: flow cytometry of ears at day 7.

Source text for IκBζ (NFKBIZ) expression: HaCaT cells were maintained in DMEM with 10% FCS and antibiotics. Human primary keratinocytes were freshly isolated from foreskin and maintained in CnT-07S medium with gentamycin (CELLnTEC). Recombinant human IL-36α (aa 6-158) and mouse IL-36α (aa 6-160) were purchased from R&D Systems. Recombinant IL-17A (11340174), TNFα (11343013) and IL-1β (11340013) were ordered from Immunotools. Flagellin (vac-fla) and poly I:C (vac-pic) were purchased from Invivogen. In cell culture experiments, the cytokines were used at the following concentrations, as described previously: IL-36α (100 ng/mL), IL-17A (200 ng/mL), TNFα (10 ng/mL) and IL-1β (100 ng/mL). Flagellin was applied at 10 ng/mL and poly(I:C) was added at a final concentration of 100 ng/mL. […] When indicated, cells were starved for 2 h prior to cytokine treatment, by removing cell culture supplements from the growth medium.
Western blot analysis was performed as described before. […]
Gene expression analyses were performed as described. Relative gene expression was analyzed using self-designed primers ordered at Metabion (not shown). Relative mRNA levels were calculated by normalization to the human reference gene RPL37A or the mouse reference gene Actin using the 2-ΔΔCt method.

Regarding Abemaciclib mesylate, in the data set with STAT3 lysine methylation, the “lysine methylation of STAT3” value is “abrogated”. In addition, in data set [1] (ear skin sections of treated mice), the “pRB expression in the epidermis (CDK4/6 inhibition)” value is “loss of pRB”. Moreover, in data set [1] (setting [3]), the “immune cell infiltration (neutrophils, macrophages, T cells)” value is reported as “significantly suppressed”; the “number of infiltrating plasmacytoid (pDC) and myeloid dendritic cells (mDC)” value was “significantly suppressed”. The “IκBζ expression, phosphorylation of EZH2 at T345 and of STAT3 at Y705 in the skin” value in data set [1] (immunoblot of skin tissue at day 7) is “completely abrogated”. Besides, the “expression of IκBζ target genes (Cxcl2, Cxcl5) and cytokines (Il17a, Il23a) in skin” value in data set [1] (qPCR of skin samples at day 7) is “significantly downregulated”. Besides, in data set [1] (topical daily for 6 days with IMQ, abemaciclib 0.02 mg, CPI-169 0.05 mg per ear/day, analysed day 7), the “psoriasis-like skin inflammation (ear thickening, keratinocyte hyperproliferation, immune cell infiltration)” value is reported as “completely suppressed”. Further, in data set [1] (topical on mouse ear skin), the “skin penetration of topically applied inhibitor” value is “effectively penetrated”. In data set [2] (immunoblot of ear skin at day 6), the “IL-36-mediated expression of IκBζ, phosphorylation of EZH2 at T345 and activation of STAT3 (pSTAT3 Y705) in skin” value is “suppressed”. Further, the “keratinocyte hyperproliferation and immune cell infiltration” value in data set [2] (intradermal IL-36α 5 days, topical inhibitor, abemaciclib 0.02 mg, CPI-169 0.05 mg, day 6) was “effectively blocked”. The “IκBζ target gene expression and key cytokine expression (Il17a, Il23a)” value in data set [2] (qPCR of skin samples) was “effectively blocked”. Also, the “IL-36α- or IL-17A/TNFα-mediated induction of IκBζ expression” value in the data set with IκBζ (NFKBIZ) expression was “completely blocked; also recorded: abolished”.
